The record followed here is US20230322815A1, “NOVEL COMPOUNDS AND THERAPEUTIC USES THEREOF” (University of Huddersfield, priority 2020, published 2023).

The test system of assay [1] is HCT116 p53^−/− cancer cells. As to the kind of experiment: Autophagy (CYTO-ID staining, confocal). Type of assay: cell-based, human. As to conditions: 3.125 μM, 40 h. The protocol: FIG. 17. The effects of [L2Cu3]^6+, [L2Zn3]^6+ and [L2Mn3]^6+ on cellular vacuole formation and autophagy in the HCT116 p53^−/− cancer cells. Representative confocal images are shown of HCT116 p53^−/− cancer cells following 40 h treatment with vehicle control or 3.125 μM [L2Cu3]^6+, [L2Zn3]^6+, or [L2Mn3]^6+.
(§1) Autophagy studies: The effects of 3.125 μM [L2Cu3]^6+, [L2Zn3]^6+ and [L2Mn3]^6+ treatments (40 h) on the induction of cellular vacuoles and autophagy in the HCT116 p53^−/−, HCT116 p53^+/+ and ARPE19 cells are presented in FIGS. 17-19 with representative cell images shown. […] In the ARPE19 cells, levels of autophagy were low with all treatments and similar to basal levels in control-treated cells (FIG. 19).

Assay [2] concerns panel of human cancer (HT-29, DLD-1, HCT116 p53^+/+ and p53^−/−, PSN1, MiaPaCa2, BxPC3, A549, H460, GBM1) and non-cancer cell lines (ARPE-19, MCF10A, NP1). The experiment in a line: Chemosensitivity of a panel of human cancer and non-cancer cell lines (MTT, 96 h). Type of assay: cell-based. As to conditions: cancer versus non-cancer cells. The protocol:
FIG. 7. Chemosensitivity response of a panel of human cancer and non-cancer cell lines to 96 h continuous exposure to self-assembling test compounds. a, The potency of compounds tested against cancer (HT-29, DLD-1, HCT116 p53^+/+ and […], PSN1, MiaPaCa2, BxPC3, A549, H460 and GBM1) and non-cancer cells (ARPE-19, MCF10A and NP1). Each value represents the mean IC50±standard deviation from a minimum of three independent experiments. b,c, The selectivity index (SI) for [L2Cu3]^6+ (b) and [L2Zn3]^6+ (c) for the indicated cancer cell lines; SI is defined as the mean IC50 against the particular non-cancer cell line model divided by the mean IC50 against the particular cancer cell line. […] As the SI value is calculated using the mean IC50 values, experimental error is not included in these figures. d,e, IC50 values for the clinically approved platinates (cisplatin, oxaliplatin and carboplatin) and [L2Mn3]^6+ and the corresponding SI results.
All cell lines used were maintained at low passage in antibiotic-free media and were obtained from ATCC (LGC Standards, Middlesex, UK) unless otherwise stated (Methods). HT29, DLD-1, HCT116 p53^+/+ and HCT116 p53^−/− are all colorectal adenocarcinoma cell lines derived from different individuals and harbor different combinations of oncogenic lesions (except for the HCT116 isogenic cancer cell clones that are genetically identical except for p53 status). PSN-1, BxPC-3 and MiaPaCa2 are pancreatic carcinoma cell lines and A549 and H460 are lung carcinoma cell lines. HT29, DLD-1, PSN-1, BxPC-3, A549 and H460 cell lines were cultured in RPMI-1640 growth media (Sigma) containing 2 mM L-glutamine, 1 mM sodium pyruvate and 10% fetal bovine serum (FBS). HCT116 (p53^+/+ and p53^−/−) and MiaPaCa2 cell lines were cultured in Dulbecco's Modified Eagle's Medium (Sigma), 2 mM L-glutamine and 10% FBS. The ARPE-19 retinal epithelial non-cancer cell line (Dunn et al., 1996) was cultured in DMEM/F12 media (Gibco), 2 mM L-glutamine, 1 mM sodium pyruvate and 10% FBS. The MCF10A non-cancerous human breast epithelial cell line was cultured in Minimal Essential Media Eagle (Sigma), 2 mM L-glutamine, 1 mM sodium pyruvate, 10% FBS and 1×non-essential amino acids (NEAA). NP1 and GBM1 cells were cultured on plasticware coated with poly-L-ornithine (5 μg/ml) and laminin (2.4 μg/ml) (Polson et al., 2018; Da Silva et al., 2019). […]
[L2M3]^6+ and all the other self-assembling complexes were freshly formed by adding DMSO to individual components mixing together by pipetting. […] Media and MTT were removed and formazan crystals were dissolved in 150 μl of DMSO and the absorbance of the resulting solution determined at 540 nm. […]

The nature of assay [3]: Phosphatase activity: hydrolysis of 4-nitrophenyl phosphate. To be noted: UV-Vis spectroscopy, after 24 hrs. An excerpt:
Only [L2Zn3(PO4)]^3+ was observed, coupled with a rapid yellowing of the solution due to the formation of 4-nitrophenolate.
The rate of substrate hydrolysis is also dependent upon the metal used in the self-assembly process.

A further assay relates to ARPE19 non-cancer cells. The experiment in a line: Cellular ATP levels. To be noted: 100 μM, 20 h. Type of assay: cell-based, human. The protocol:
FIG. 20. The effects of [L2Cu3]^6+, [L2Zn3]^6+ and [L2Mn3]^6+ on cellular ATP levels in the ARPE19 non-cancer and HCT116 p53^+/+ cancer cells. The effects of 20 h treatment with the indicated concentrations of [L2Cu3]^6+, [L2Zn3]^6+, or [L2Mn3]^6+ on total cellular levels of ATP compared to levels in vehicle control-treated ARPE19 or HCT116^+/+ cells. n=3 biological repeats, students t-test (p values).
Cellular ATP studies: The effects of 20 h treatment with a range of different concentrations of [L2Cu3]^6+, [L2Zn3]^6+ and [L2Mn3]^6+ on total cellular ATP levels in HCT116 p53^+/+ and ARPE19 cells are presented in FIG. 20. Differential effects are observed depending on the metal in the complex, with [L2Mn3]^6+ having the most profound effects on both the HCT116 p53^+/+ cancer and ARPE19 non-cancer cells. 6.25 μM [L2Mn3]^6+ treatment for 20 h reduced ATP levels in the HCT116 p53^+/+ cancer cells to <50% with ATP levels declining less in the ARPE19 non-cancer cells but reaching ˜40% with 100 μM [L2Mn3]^6+ treatment. […] Effects of [L2Cu3]^6+ on ATP levels was much less, with ATP levels in the HCT116 cells reduced to <50% only at the highest concentration of 100 μM.

The subject of assay [4] is HCT116 p53^+/+ cancer cells. As to the kind of experiment: Autophagy (CYTO-ID staining, confocal). To be noted: 3.125 μM, 40 h. Type of assay: cell-based, human. On the procedure:
FIG. 18. The effects of [L2Cu3]^6+, [L2Zn3]^6+ and [L2Mn3]^6+ on cellular vacuole formation and autophagy in the HCT116 p53^+/+ cancer cells. Representative confocal images are shown of HCT116 p53^+/+ cancer cells following 40 h treatment with vehicle control or 3.125 μM [L2Cu3]^6+, [L2Zn3]^6+, or [L2Mn3]^6+.
as §1

Molecules are shown by their SMILES.

Regarding `[Mn+2].[Mn+2].[Mn+2].c1ccc(-c2csc(NCCN(CCNc3nc(-c4ccccn4)cs3)CCNc3nc(-c4ccccn4)cs3)n2)nc1.c1ccc(-c2csc(NCCN(CCNc3nc(-c4ccccn4)cs3)CCNc3nc(-c4ccccn4)cs3)n2)nc1` [[L2Mn3]^6+], the induction of autophagy result is given as “most pronounced” in assay [1] and “evident” in assay [4]. In assay [2], the “preferential selectivity towards cancer cells” value was about 2 fold. In assay [3], the “phosphate hydrolysed compared with the Zn^2+ species” value is “three times more phosphate”. The “ATP levels compared to vehicle control” value with ARPE19 non-cancer cells is recorded as about 40%.
